Experimental data published in article PMC3081938 (Journal of natural products, 2011).
“Also recorded” adds a separate entry of the source.

Tests used:
[1] = biological target: T1, KOP receptors (Homo sapiens, UniProt P41145); experiment: biochemical; format: binding
[2] = biological target: T1, KOP receptors; experiment: biochemical; format: biochemical
[3] = biological target: DOP receptors (Homo sapiens, UniProt P41143); format: binding
[4] = system: opioid mediated antinociceptive properties; conditions: rats; cited from earlier work
[5] = system: 5-HT2A receptor; conditions: cited from earlier work
[6] = system: κ opioid (KOP) receptors; conditions: cited from earlier work
[7] = system: locomotor effects of cocaine; conditions: rats; cited from earlier work

T1 sequence (P41145 whole entry): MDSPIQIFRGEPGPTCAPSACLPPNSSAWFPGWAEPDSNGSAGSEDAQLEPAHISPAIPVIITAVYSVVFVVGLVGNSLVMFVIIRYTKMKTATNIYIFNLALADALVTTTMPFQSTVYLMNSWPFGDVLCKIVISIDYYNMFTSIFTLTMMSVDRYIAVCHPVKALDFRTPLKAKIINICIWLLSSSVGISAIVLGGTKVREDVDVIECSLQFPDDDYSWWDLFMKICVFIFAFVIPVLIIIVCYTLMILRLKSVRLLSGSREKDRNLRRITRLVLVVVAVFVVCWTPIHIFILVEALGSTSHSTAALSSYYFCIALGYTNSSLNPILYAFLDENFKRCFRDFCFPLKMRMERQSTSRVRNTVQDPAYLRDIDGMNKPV
Sequence of DOP receptors (P41143 whole entry): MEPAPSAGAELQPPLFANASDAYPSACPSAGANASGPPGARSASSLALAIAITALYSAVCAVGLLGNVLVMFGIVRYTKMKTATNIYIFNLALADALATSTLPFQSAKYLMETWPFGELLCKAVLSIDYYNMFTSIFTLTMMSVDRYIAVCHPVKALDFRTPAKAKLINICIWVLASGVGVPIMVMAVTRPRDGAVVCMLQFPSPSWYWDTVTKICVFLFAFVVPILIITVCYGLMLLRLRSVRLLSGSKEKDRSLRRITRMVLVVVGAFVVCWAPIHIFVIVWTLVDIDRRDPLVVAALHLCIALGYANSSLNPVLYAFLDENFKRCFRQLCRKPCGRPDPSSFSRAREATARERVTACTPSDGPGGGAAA

In the case of `COC(=O)[C@@H]1C[C@H](OC(C)=O)C(=O)[C@H]2[C@@]1(C)CC[C@H]1C(=O)O[C@H](C3=CC4OC3C3C4C4OC3(C)c3c4c4ccccc4c(=O)c4ccccc34)C[C@]21C` (stereo partly drawn) [Compound 12, (2S,4aR,6aR,7R,9S,10aS,10bR)-Methyl 9-acetoxy-2-(8,8a,9,12,12a,13-hexahydro-8-methyl-8,13:9,12-diepoxy-5H-dibenzo[3,4:6,7]cyclohept[1,2]naphthanen-5-on-10-yl)-6a,10b-dimethyl-4,10-dioxododecahydro-1H-benzo[f]isochromene-7-carboxylate], the “Fold increase in affinity for KOP receptors” value [1] is reported as 44 fold.

For `COC(=O)C1=C(C(=O)OC)C2OC1C=C2[C@@H]1C[C@]2(C)[C@H]3C(=O)[C@@H](OC(C)=O)C[C@@H](C(=O)OC)[C@]3(C)CC[C@H]2C(=O)O1` (stereo partly drawn) [Compound 6, Dimethyl 5-((2S,4aR,6aR,7R,9S,10aS,10bR)-9-acetoxy-7-(methoxycarbonyl)-6a,10b-dimethyl-4,10-dioxododecahydro-1H-benzo[f]isochromen-2-yl)-7-oxabicyclo[2.2.1]hepta-2,5-diene-2,3-dicarboxylate], the EC50 [2] was 980 ± 200 nM and the “Efficacy at KOP receptors (in words)” value [2] was “full agonist”.

`COC(=O)c1ccc([C@@H]2C[C@]3(C)[C@H]4C(=O)[C@@H](OC(C)=O)C[C@@H](C(=O)OC)[C@]4(C)CC[C@H]3C(=O)O2)cc1C(=O)OC` [Compound 14, Dimethyl 4-((2S,4aR,6aR,7R,9S,10aS,10bR)-9-acetoxy-7-(methoxycarbonyl)-6a,10b-dimethyl-4,10-dioxododecahydro-1H-benzo[f]isochromen-2-yl)phthalate] gave a Ki [1] of 228 nM.

In the case of `CCOC(=O)C1=C(C(=O)OCC)C2OC1C=C2[C@@H]1C[C@]2(C)[C@H]3C(=O)[C@@H](OC(C)=O)C[C@@H](C(=O)OC)[C@]3(C)CC[C@H]2C(=O)O1` (stereo partly drawn) [Compound 5, Diethyl 5-((2S,4aR,6aR,7R,9S,10aS,10bR)-9-acetoxy-7-(methoxycarbonyl)-6a,10b-dimethyl-4,10-dioxododecahydro-1H-benzo[f]isochromen-2-yl)-7-oxabicyclo[2.2.1]hepta-2,5-diene-2,3-dicarboxylate], the EC50 [2] is reported as 2150 nM, the “Efficacy at KOP receptors (in words)” value [2] is reported as “full agonists; also recorded: high efficacy” and the “Fold increase in affinity for DOP receptors” value [3] is reported as “over 4 fold”.

With `COC(=O)[C@@H]1C[C@H](OC(C)=O)C(=O)[C@H]2[C@@]1(C)CC[C@H]1C(=O)O[C@H](C3=CC4OC3C3C5OC(c6c5c5ccccc5c(=O)c5ccccc65)C43)C[C@]21C` (stereo partly drawn) [Compound 11, (2S,4aR,6aR,7R,9S,10aS,10bR)-Methyl 9-acetoxy-2-(8,8a,9,12,12a,13-hexahydro-8,13:9,12-diepoxy-5H-dibenzo[3,4:6,7]cyclohept[1,2]naphthanen-5-on-10-yl)-6a,10b-dimethyl-4,10-dioxododecahydro-1H-benzo[f]isochromene-7-carboxylate] the “Ki ± SD (nM) DOP” value [3] was “no appreciable affinity”.

For `COC(=O)[C@@H]1C[C@H](OC(C)=O)C(=O)[C@H]2[C@@]1(C)CC[C@H]1C(=O)O[C@H](c3ccoc3)C[C@]21C` [Compound 1, (2S,4aR,6aR,7R,9S,10aS,10bR)-methyl 9-acetoxy-2-(furan-3-yl)-6a,10b-dimethyl-4,10-dioxo-dodecahydro-1H-benzo[f]isochromene-7-carboxylate], the Antinociceptive properties [4] is given as “opioid mediated antinociceptive properties”, the “Affinity for the 5-HT2A receptor” value [5] is given as “does not have any affinity” and the “Agonism at κ opioid (KOP) receptors” value [6] is given as “full agonist”. The “Effect on locomotor effects of cocaine” value [7] was “can block the locomotor effects of cocaine” and the “KOP ED50 ± SD” value [2] was 40 nM.

`COC(=O)[C@@H]1C[C@H](OC(C)=O)C(=O)[C@H]2[C@@]1(C)CC[C@H]1C(=O)O[C@H](c3ccc4ccccc4c3)C[C@]21C` [Compound 15, (2S,4aR,6aR,7R,9S,10aS,10bR)-methyl 9-acetoxy-6a,10b-dimethyl-2-(naphthalen-2-yl)-4,10-dioxododecahydro-1H-benzo[f]isochromene-7-carboxylate] showed a Ki [1] of 286 nM.
